The values below come from patent publication US20100240767A1, “Melanogenesis inhibitiuon by 3,5-dimethoxy-4'-hydroxystilbenes and cosmeceutical compositions thereof” (priority 2009, published 2010).

In brackets after ≈: the same amount, converted by molar mass.

Experiment [1] deals with mushroom tyrosinase. Briefly: mushroom tyrosinase inhibitory activity. Type of experiment: biochemical. Conditions: 400 U/ml mushroom tyrosinase, 3.53 mM L-tyrosine substrate, absorbance 492 nm at 10th minute. The method, then: The mushroom tyrosinase inhibitory activity of 3,5-dimethoxy-4′-hydroxystilbene was studied in a micro plate by incubating varying concentrations of the sample with 400 U/ml of mushroom tyrosinase and then by the addition of 3.53 mM of L-tyrosine substrate. The absorbance at the 10th minute of the reaction was read in a Fluostar Optima micro plate reader at 492 nm.

The subject of experiment [2] is B16F1 mouse melanoma cell line. Kind of experiment: melanogenesis inhibition in MSH-induced B16F1 mouse melanoma cell line. It counts as cell-based. Here is the method:
3,5-dimethoxy-4′-hydroxystilbene was studied for melanogenesis inhibition in B16F1 mouse melanoma cell line. B16F1 cells were induced with 0.5 nM MSH (Melanocyte stimulating hormone) and then treated with varying concentrations of the sample. Sample treatment was given thrice after every 72 hrs. On the 9th day of treatment, the melanin from the cells was extracted with 1N NaOH and the absorbance was read at 405 nm in a Fluostar Optima micro plate reader.

Experiment [3] concerns Swiss 3T3 mouse fibroblast cells. Kind of experiment: UV protection in Swiss 3T3 mouse fibroblast cells (SRB viability). Type of experiment: cell-based. Conditions: UV A (0.5 J/cm2) and UV B (0.05 J/cm2), 72 hours incubation, SRB staining. The method, then:
3,5-dimethoxy-4′-hydroxystilbene was studied for UV protection in Swiss 3T3 mouse fibroblast cells. Swiss 3T3 fibroblast cell monolayers were exposed to UV A (0.5 J/cm2) and UV B (0.05 J/cm2) in the presence and absence of sample treatment at varying concentrations. After UV exposure, the cells were incubated in CO2 incubator for 72 hours and the cell viability was determined by SRB (Sulphorhodomine B) dye staining. The UV protection is determined as the enhanced percentage of viable sample treated cells as compared to the untreated cells after UV exposure.
In general terms: The SRB assay estimates cell density from bound dye.

Consider `COc1cc(/C=C/c2ccc(O)cc2)cc(OC)c1` [3,5-dimethoxy-4′-hydroxystilbene], for which the “inhibition of mushroom tyrosinase IC50” value in experiment [1] stood at 7 µg/mL. Moreover, the IC50 in experiment [2] (Mus musculus, B16-F1, B16F1 cells induced with 0.5 nM MSH, treated thrice every 72 hrs, melanin read at 405 nm on 9th day) worked out at 0.5 µg/mL (≈ 1.95 µM). The “melanogenesis inhibition potential relative to Glabridin” value in experiment [2] (times higher potential than Glabridin, B16F1 cells) is reported as “about 6 times”. For the same compound, the “UV protection (enhanced percentage of viable treated cells as compared to the untreated cells after UV exposure)” value in experiment [3] is reported as 32%.

As usually defined, the IC50 is the concentration that inhibits the measured activity by half. Higher therefore signals weaker potency.
